This is an account of results in patent publication US8455491B2, “6-cycloamino-3-(pyridazin-4-yl)imidazo[1,2-b]pyridazine and derivatives and pharmaceutical compositions comprising the same” (Sanofi, priority 2007, dated 2013).

Molecules are shown by their SMILES. pIC50: −log10 of the molar value.

The target in series [1] is T1, human CK1 delta (Homo sapiens, UniProt P48730).
T1 construct: purchased Invitrogen Corporation PV3665
The series can be described thus: FRET fluorescence test (Z'Lyte kinase assay Kit), CK1 delta. It is filed as biochemical. The conditions noted are these: peptide substrate SER/THR 11 2 μM, ATP 4 times the KM. The text has this: The capacity of the compounds of the invention to inhibit the phosphorylation of casein by casein kinase 1 epsilon and delta may be evaluated using a FRET (“Fluorescence Resonance Energy Transfer) fluorescence test with the aid of the “Z′Lyte™ kinase assay Kit” (reference PV3670; Invitrogen Corporation™) according to the manufacturer's instructions.
The casein kinases 1 used are obtained from Invitrogen Corporation (human CK1 epsilon PV3500 and human CK1 delta PV3665).
A peptide substrate, labeled at both ends with a fluorophore donor group (coumarin) and a fluorophore acceptor group ([…]) constituting a FRET system is phosphorylated in the presence of ATP by casein kinase 1 epsilon or delta in the presence increasing concentrations of compounds of the invention. The mixture is treated with a site-specific protease that specifically cleaves the peptide substrate to form two fluorescent fragments having a large fluorescence emission ratio.
The fluorescence observed is thus related to the capacity of the products of the invention to inhibit the phosphorylation of the peptide substrate by casein kinase 1 epsilon or casein kinase 1 delta.
The compounds of the invention are dissolved at different concentrations starting with a 10 mM stock solution in DMSO diluted in a buffer containing 50 mM HEPS, pH 7.5, 1 m MEGTA, 0.01% Brij-35, 10 mM MgCl for casein kinase 1 epsilon and supplemented with Trizma Base (50 mM), pH 8.0, and NaN3 (0.01% final) for casein kinase 1 delta.
The phosphorylation of the peptide substrate SER/THR 11 obtained from Invitrogen Corporation™ is performed at a final concentration of 2 μM. The ATP concentration is 4 times the KM, this value being 2 μM for casein kinase 1 epsilon and 4 μM for casein kinase 1 delta.
The emitted fluorescence is measured at wavelengths of 445 and 520 nm (excitation at 400 nm).

Series [2] concerns the target T2, casein kinase 1 epsilon (CK1 epsilon) (Homo sapiens, UniProt P49674).
T2 construct: Invitrogen Corporation (named as alternative)
Briefly: Filter-plate assay of ATP-33P, inhibition of casein phosphorylation by CK1 epsilon. The series is classed as biochemical. As to conditions: casein substrate, ATP 10 μM, 2 hours at ambient temperature. As to the method:
The capacity of the compounds of the invention to inhibit the phosphorylation of casein by casein kinase 1 epsilon and delta may be evaluated according to the procedure described in US 2005/0131012.
Filter-Plate Assay of ATP-^33P for the Screening of CK1 Epsilon Inhibitors:
The effect of the compounds on inhibition of the phosphorylation of casein by the enzyme casein kinase 1 epsilon (CK1 epsilon) is measured, using a casein assay with filtration of ATP-^33P in vitro.
Casein kinase 1 epsilon (0.58 mg/ml) is obtained via fermentation and purification processes performed according to methods that are well known to those skilled in the art, or may also be obtained from Invitrogen Corporation™ (human CK1 epsilon).
The compounds are tested at five different concentrations so as to generate IC50 values, i.e. the concentration at which a compound is capable of inhibiting the enzymatic activity by 50%, or alternatively the percentage of inhibition at a concentration of 10 micromolar.
“U”-bottomed Falcon plates are prepared by placing 5 μL of solutions of the compounds according to the invention at concentrations of 10, 1, 0.1, 0.01 or 0.001 μM in various wells. The solutions of the compounds according to the invention at these various concentrations are prepared by diluting in a test buffer (50 mM Tris, pH 7.5, […], 2 mM DTT and 1 mM EGTA) a stock solution in DMSO at a concentration of 10 mM. Next, 5 μL of dephosphorylated casein are added to a final concentration of 0.2 μg/μL, 20 μl of CK1 epsilon to a final concentration of 3 ng/μl, and 20 μl of ATP-^33P to a final concentration of 0.02 μCi/μl mixed with cold ATP (10 μM final—approximately 2×10^6 CPM per well). The final total test volume per well is equal to 50 μl.
The “U”-bottomed Falcon® test plate mentioned above is vortexed, and then incubated at ambient temperature for 2 hours. After 2 hours, the reaction is stopped by adding an ice-cold solution of 65 μl of ATP (2 mM) prepared in test buffer.
100 μl of the reaction mixture are then transferred from the “U”-bottomed Falcon® plate into Millipore® MAPH filter plates, preimpregnated with 25 μl of ice-cold 100% TCA. […]
The plates are left to dry overnight at ambient temperature. […] The radiation emitted by each well is then measured for 2 minutes in a Packard® Topcount NXT scintillation counter, in which the values of CPM/well are measured.
The percentage inhibition of the capacity of the enzyme to phosphorylate the substrate (casein) is determined for each concentration of compound tested. These inhibition data expressed as percentages are used to calculate the IC50 value for each compound compared with the controls.
The kinetic studies determined the KM value for ATP as being 21 μM in this test system.

For orientation: melting point means the temperature of the solid-liquid transition. Broadly, the pIC50 is −log10 of the IC50, conventionally taken in molar units. The low end stands for a large IC50, the high end for a small IC50.

T1 sequence (P48730 whole entry): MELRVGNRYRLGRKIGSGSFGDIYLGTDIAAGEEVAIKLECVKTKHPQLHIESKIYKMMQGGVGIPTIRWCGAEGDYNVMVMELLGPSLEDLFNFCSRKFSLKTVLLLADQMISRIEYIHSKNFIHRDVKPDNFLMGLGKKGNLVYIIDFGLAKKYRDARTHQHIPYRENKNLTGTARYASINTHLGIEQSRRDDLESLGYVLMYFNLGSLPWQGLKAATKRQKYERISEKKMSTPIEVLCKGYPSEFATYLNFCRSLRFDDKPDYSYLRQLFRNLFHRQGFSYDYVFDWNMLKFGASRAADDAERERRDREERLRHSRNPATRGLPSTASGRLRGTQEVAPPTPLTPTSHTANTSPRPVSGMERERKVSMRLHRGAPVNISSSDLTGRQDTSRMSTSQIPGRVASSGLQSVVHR
T2 sequence (P49674 whole entry): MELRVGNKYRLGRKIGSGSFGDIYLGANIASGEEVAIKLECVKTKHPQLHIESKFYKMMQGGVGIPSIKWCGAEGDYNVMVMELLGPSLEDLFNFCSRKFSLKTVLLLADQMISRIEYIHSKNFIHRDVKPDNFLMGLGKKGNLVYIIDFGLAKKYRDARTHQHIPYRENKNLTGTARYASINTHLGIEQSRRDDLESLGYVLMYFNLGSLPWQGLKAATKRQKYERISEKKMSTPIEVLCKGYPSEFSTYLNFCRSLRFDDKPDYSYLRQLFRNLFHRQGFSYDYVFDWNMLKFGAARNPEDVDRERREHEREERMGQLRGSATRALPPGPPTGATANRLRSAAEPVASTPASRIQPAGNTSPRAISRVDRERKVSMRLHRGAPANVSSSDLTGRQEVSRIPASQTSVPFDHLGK

The molecule `CN1CCN(c2ccc3nc(-c4ccc(F)cc4)c(-c4ccnnc4)n3n2)CC1` [compound 5, 2-(4-fluorophenyl)-6-(4-methylpiperazin-1-yl)-3-pyridazin-4-yl-imidazo[1,2-b]pyridazine] came in with a melting point of 232 to 233 °C. Besides, the pIC50 in series [1] is 7.25 to 7.39. This molecule also gave a pIC50 in series [2] of 7.48 to 7.80.
